In ChEMBL document CHEMBL1201862, “PubChem BioAssay data set” (2004):
Active and inactive are the calls of the source.

What was measured:
Cytochrome P450 2C19 = Cytochrome P450 2C19 (Homo sapiens, UniProt P33261); assay: qHTS Assay for Inhibitors and Substrates of Cytochrome P450 2C19. [Related pubchem assays: 410 ]; format: ADME; details: read-out: Potency
[1] = Late stage counterscreen results from the probe development effort to identify activators of signal transducer and activator of transcription 1 (STAT1): luminescence-based cell-based dose response assay to identify cytotoxic compounds.; format: functional
Paired box protein Pax-8 = Paired box protein Pax-8 (Homo sapiens, UniProt Q06710); assay: PAX8 transcriptional activity inhibition in RMG-I – RMG-I cells, luciferase, cherry-pick, dose response (AID 687027); format: functional, cell-based;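 further: luciferase reporter driven by Pax8 target thyroperoxidase promoter measured by SteadyGlo luminescence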
[2] = general cell-killing toxicity readout – plate reader, dry powder samples, cytotoxicity control for PAX8 inhibitor project, dose response (AID 743021); format: functional, cell-based
Ephrin type-A receptor 4 = Ephrin type-A receptor 4 (Mus musculus, UniProt Q03137); assay: EphA4 ligand-binding antagonists – biochemical, colorimetric, mouse EphA4, primary screen (AID 689); format: functional
Ephrin type-A receptor 4, sequence (Q03137 whole entry): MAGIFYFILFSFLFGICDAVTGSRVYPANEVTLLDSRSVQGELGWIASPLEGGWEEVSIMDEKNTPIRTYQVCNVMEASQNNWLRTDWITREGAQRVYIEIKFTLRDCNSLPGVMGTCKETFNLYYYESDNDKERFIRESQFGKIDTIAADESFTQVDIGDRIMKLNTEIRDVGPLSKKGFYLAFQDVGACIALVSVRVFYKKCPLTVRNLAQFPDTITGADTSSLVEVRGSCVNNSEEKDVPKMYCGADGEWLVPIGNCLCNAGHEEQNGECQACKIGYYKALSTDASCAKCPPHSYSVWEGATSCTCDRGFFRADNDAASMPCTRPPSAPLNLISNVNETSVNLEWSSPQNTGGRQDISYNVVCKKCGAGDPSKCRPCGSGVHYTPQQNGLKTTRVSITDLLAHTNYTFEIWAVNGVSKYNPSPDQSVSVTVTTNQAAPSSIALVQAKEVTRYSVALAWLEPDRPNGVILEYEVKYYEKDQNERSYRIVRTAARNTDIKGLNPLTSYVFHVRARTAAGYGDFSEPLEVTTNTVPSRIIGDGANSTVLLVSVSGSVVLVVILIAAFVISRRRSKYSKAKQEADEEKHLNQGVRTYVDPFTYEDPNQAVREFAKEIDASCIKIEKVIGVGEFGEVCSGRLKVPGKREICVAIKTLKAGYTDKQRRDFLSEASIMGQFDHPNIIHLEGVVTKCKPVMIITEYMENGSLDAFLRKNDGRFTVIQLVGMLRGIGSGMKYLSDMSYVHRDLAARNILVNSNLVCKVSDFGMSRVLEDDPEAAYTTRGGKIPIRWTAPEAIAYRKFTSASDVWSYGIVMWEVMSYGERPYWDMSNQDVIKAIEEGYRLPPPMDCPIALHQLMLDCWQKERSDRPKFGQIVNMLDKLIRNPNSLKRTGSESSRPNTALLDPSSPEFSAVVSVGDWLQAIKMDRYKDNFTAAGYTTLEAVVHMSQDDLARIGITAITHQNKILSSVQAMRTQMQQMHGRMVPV

[3] = biological target: T1, Zinc finger protein mex-5 (Caenorhabditis elegans, UniProt Q9XUB2); assay: potency of MEX-5 RNA-binding blockers – biochemical, C. elegans, fluorescence polarization, dose response (AID 1960)
T1 sequence (Q9XUB2 whole entry): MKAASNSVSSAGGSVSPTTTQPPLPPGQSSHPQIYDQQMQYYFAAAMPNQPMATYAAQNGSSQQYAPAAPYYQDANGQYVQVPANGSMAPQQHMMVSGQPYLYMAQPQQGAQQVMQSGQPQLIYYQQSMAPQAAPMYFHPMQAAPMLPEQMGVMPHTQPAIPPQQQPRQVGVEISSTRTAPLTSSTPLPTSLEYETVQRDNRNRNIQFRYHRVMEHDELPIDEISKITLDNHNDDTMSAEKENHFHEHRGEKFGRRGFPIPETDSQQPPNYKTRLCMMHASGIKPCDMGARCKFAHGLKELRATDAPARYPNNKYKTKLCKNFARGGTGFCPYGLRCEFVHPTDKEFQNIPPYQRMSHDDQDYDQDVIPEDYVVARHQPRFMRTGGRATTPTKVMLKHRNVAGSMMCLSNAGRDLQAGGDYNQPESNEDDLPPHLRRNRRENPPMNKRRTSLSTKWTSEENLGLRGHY

[4] = biological target: T2, Heat shock factor protein 1 (Mus musculus, UniProt P38532); assay: enhancement of HSF1-driven luciferase signal – cell-based, NIH3T3, luminescence, dose retest, confirmation (AID 435004); format: functional;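 further: stress induced by proteasome inhibitor MG132 added 30 min after compound; luciferase reporter driven by HSF1 response element in NIH3T3 cells; actives raise luminescence as potentiators of the MG132 stress response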
T2 sequence (P38532 whole entry): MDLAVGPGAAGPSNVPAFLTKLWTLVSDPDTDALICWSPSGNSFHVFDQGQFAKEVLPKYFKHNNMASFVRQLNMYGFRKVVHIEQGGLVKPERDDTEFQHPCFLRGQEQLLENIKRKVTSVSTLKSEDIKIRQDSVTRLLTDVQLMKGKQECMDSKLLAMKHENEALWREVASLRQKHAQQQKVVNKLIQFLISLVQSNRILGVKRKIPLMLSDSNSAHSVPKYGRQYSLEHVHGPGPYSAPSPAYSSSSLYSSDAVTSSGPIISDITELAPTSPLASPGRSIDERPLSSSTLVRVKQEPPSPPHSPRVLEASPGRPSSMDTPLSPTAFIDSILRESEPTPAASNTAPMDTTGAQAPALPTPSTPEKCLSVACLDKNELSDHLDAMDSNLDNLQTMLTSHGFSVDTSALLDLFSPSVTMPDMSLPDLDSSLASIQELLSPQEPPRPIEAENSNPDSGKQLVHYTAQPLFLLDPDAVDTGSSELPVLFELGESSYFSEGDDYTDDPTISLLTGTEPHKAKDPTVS

Bcl-2-related protein A1 [5] = biological target: T3, Bcl-2-related protein A1 (Mus musculus, UniProt Q07440); assay: small-molecule antagonists of Bfl-1/BH3 interaction – biochemical, TR-FRET, mouse Bfl-1, confirmation (AID 621);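 further: TR-FRET binding of GST-Bfl-1 to FITC-labelled Bid peptide via terbium antibody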
T3 sequence (Q07440 whole entry): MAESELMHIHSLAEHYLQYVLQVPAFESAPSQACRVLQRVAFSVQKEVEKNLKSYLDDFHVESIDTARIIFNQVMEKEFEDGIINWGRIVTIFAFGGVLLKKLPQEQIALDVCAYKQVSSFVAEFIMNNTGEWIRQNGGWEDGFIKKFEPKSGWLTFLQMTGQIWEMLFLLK

Bcl-2-related protein A1 [6] = biological target: T3, Bcl-2-related protein A1; assay: displacement of Bid BH3 peptide from Bfl-1 – biochemical, fluorescence polarization, FITC-Bid, mouse, primary screen (AID 432)
[7] = biological target: G-protein coupled receptor 35 (Homo sapiens, UniProt Q9HC97); assay: inhibition of zaprinast-stimulated GPR35 beta-arrestin translocation – imaging, U2OS, beta-arrestin-GFP, zaprinast agonist, primary screen (AID 2058); format: functional;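 further: antagonist potency meaning inhibition of agonist-induced arrestin redistribution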
G-protein coupled receptor 35, sequence (Q9HC97 whole entry, the tested form may be a part): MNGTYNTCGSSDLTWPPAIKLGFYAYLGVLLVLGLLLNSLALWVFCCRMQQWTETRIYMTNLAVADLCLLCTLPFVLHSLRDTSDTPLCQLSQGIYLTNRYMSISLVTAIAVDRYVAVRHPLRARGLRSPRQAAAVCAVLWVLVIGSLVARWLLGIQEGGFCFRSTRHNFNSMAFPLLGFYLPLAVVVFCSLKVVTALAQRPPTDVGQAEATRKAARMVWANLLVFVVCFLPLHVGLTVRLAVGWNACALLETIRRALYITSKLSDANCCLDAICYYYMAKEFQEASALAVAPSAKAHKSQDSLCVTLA

[8] = biological target: T4, RNA-binding protein pos-1 (Caenorhabditis elegans, UniProt G5EF15); assay: disruptors of C. elegans POS-1 RNA interaction – biochemical, fluorescence polarization, dose response (AID 1964);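 further: purified POS-1 fused to maltose binding protein made in E. coli; potency of compounds blocking POS-1 binding to fluorescent RNA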
T4 sequence (G5EF15 whole entry): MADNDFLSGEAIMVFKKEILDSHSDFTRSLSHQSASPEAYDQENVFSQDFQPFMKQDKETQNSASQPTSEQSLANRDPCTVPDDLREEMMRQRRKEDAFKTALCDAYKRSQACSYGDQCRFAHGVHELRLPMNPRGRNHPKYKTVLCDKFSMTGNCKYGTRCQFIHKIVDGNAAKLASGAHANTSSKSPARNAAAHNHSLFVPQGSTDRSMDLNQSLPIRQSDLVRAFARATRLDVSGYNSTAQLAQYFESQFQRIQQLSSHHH

[9] = biological target: Peroxisome proliferator-activated receptor gamma/Nuclear receptor coactivator 1 (Homo sapiens, UniProt P37231); assay: TR-FRET dose response biochemical High Throughput Screening assay for agonists of the steroid receptor coactivator 1 (SRC-1) recruitment by the peroxisome proliferator-activated receptor gamma (PPAR gamma): non-selective agonists. [Related pubchem assays (depositor defined):AID1300, AID1808, AID504735, AID631]; format: protein assay
[10] = biological target: Peroxisome proliferator-activated receptor gamma/Nuclear receptor corepressor 2 (Homo sapiens, UniProt P37231+Q9Y618); assay: Counterscreen for NR2E3 inverse agonists: TR-FRET-based biochemical high throughput dose response assay to identify inverse agonists of the interaction between peroxisome proliferator-activated receptor gamma (PPARg) and nuclear receptor co-repressor 2 (NCOR2).; format: functional
Peroxisome proliferator-activated receptor gamma/Nuclear receptor corepressor 2, sequence (P37231 whole entry): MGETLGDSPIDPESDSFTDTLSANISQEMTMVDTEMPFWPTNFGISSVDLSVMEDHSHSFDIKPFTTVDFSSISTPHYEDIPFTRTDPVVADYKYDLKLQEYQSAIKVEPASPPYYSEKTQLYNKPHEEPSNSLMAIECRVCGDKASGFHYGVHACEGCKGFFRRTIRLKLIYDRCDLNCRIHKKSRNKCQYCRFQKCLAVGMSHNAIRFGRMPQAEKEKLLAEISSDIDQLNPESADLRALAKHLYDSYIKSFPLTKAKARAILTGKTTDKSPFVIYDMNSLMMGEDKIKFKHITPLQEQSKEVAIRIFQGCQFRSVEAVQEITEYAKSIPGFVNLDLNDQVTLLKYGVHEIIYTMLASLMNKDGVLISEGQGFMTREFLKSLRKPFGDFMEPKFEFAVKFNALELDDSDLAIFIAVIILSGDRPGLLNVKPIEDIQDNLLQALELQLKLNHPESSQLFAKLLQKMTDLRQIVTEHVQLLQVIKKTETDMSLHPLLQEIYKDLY
Peroxisome proliferator-activated receptor gamma/Nuclear receptor corepressor 2, sequence (Q9Y618 whole entry): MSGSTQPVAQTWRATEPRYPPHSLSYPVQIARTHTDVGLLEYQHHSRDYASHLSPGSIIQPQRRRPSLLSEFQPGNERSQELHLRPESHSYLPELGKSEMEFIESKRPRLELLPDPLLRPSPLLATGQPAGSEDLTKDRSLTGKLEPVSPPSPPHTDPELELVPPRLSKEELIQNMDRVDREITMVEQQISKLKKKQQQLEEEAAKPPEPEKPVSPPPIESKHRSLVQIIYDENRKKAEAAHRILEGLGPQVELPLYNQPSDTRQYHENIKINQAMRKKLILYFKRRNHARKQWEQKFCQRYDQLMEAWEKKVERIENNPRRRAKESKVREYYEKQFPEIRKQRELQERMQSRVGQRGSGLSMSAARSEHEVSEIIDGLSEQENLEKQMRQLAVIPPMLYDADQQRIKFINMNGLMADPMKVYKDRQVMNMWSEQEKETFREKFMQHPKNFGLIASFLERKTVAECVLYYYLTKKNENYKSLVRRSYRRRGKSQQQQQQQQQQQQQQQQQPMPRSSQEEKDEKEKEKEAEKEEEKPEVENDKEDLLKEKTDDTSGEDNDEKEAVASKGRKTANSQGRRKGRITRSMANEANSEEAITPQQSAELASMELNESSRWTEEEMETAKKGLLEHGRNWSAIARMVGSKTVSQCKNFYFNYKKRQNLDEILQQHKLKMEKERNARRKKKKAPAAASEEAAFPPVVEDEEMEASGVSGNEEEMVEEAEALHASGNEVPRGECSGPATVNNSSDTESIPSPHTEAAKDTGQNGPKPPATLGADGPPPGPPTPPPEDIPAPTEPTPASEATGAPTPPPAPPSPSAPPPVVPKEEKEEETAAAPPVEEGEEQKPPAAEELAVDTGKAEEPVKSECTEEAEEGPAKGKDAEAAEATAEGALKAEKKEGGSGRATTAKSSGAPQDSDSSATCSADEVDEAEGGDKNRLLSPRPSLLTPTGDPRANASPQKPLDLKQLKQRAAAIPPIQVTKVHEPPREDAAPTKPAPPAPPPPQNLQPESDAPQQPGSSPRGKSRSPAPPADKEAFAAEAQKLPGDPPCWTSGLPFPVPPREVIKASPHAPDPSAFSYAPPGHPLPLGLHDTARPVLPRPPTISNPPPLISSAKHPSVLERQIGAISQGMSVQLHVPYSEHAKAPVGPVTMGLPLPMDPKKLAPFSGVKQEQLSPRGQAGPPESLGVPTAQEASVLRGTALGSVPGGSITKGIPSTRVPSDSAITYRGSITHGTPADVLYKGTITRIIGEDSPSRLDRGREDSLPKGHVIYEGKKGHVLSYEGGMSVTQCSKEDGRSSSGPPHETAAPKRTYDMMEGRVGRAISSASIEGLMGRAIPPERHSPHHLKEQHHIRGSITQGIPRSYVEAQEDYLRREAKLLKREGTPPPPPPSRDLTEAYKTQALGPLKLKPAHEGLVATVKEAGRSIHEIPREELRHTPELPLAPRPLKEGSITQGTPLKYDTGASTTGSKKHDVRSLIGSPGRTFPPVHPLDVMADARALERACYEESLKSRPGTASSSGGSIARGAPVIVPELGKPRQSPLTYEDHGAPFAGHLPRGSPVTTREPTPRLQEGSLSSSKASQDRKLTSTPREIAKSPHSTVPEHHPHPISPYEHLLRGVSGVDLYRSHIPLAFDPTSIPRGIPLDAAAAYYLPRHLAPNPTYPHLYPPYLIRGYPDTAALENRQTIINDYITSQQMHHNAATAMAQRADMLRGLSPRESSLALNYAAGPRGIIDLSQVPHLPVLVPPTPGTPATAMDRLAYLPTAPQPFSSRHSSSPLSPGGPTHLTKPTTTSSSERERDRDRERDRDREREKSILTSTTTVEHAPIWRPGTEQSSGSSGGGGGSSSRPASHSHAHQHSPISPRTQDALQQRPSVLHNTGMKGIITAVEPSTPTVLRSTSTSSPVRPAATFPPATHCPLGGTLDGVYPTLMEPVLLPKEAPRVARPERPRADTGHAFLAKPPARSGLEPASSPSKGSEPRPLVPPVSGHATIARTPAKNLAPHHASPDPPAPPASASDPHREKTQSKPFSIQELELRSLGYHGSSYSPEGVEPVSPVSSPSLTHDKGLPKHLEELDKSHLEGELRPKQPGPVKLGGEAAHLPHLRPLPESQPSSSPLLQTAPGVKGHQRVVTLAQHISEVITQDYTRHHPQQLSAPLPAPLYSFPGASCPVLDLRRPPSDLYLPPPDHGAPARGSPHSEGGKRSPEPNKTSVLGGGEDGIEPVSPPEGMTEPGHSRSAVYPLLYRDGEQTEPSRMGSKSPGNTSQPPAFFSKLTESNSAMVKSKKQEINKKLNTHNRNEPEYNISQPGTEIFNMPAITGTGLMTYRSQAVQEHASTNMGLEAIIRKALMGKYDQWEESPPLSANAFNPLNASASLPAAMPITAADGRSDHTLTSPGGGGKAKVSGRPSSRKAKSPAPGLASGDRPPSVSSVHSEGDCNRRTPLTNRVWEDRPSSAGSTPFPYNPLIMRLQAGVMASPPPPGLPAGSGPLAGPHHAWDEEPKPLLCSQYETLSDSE

[11] = biological target: Peroxisome proliferator-activated receptor gamma/Nuclear receptor coactivator 2 (Homo sapiens, UniProt P37231); assay: (§1) TR-FRET dose response biochemical High Throughput Screening assay for agonists of the steroid receptor coactivator 2 (SRC-2) recruitment by the peroxisome proliferator-activated receptor gamma (PPAR gamma): non-selective agonists. [Related pubchem assays: 1297, 1032 ]; format: functional
[12] = biological target: Photoreceptor-specific nuclear receptor (Homo sapiens, UniProt Q9Y5X4); assay: ligands suppressing NR2E3 nuclear receptor activity – biochemical, TR-FRET, dose response (AID 463256); format: functional
[13] = biological target: Peroxisome proliferator-activated receptor gamma/Nuclear receptor coactivator 3 (Homo sapiens, UniProt P37231); assay: as §1, with “3 (SRC-3)” for “2 (SRC-2)”, “1301 (Confirmation screen.), 1048 (Primary screen.)]” for “1297, 1032 ]”; format: functional
Heat shock protein HSP90 = Heat shock protein HSP90 (Homo sapiens, UniProt P07900+P08238); assay: Hsp90 blockade concentration-response – dose response (AID 712); format: functional
[14] = biological target: T5, Rac GTPase-activating protein 1 (Homo sapiens, UniProt Q9H0H5); assay: blockers of MgcRacGAP-driven Rac1 GTP hydrolysis – biochemical, ADP Hunter fluorescence, primary and confirmatory, confirmation (AID 624330); format: functional
T5 sequence (Q9H0H5 whole entry): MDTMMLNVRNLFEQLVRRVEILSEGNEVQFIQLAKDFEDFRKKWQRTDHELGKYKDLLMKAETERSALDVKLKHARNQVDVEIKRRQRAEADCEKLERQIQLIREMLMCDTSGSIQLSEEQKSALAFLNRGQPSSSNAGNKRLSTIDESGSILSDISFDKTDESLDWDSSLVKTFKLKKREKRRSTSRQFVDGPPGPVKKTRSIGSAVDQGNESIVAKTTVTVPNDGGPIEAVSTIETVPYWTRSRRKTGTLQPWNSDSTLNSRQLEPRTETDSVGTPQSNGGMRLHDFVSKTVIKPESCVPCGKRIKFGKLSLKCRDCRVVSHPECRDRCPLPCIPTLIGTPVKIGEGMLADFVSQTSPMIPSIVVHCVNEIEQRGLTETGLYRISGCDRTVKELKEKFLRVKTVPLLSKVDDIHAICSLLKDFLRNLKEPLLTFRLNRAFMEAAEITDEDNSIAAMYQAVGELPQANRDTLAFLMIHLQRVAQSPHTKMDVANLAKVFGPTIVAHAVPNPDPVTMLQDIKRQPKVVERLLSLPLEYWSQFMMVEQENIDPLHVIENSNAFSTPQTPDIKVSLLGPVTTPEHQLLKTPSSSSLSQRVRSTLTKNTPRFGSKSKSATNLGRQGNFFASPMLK

[15] = biological target: FAD-linked sulfhydryl oxidase ALR (Homo sapiens, UniProt P55789); assay: ALR-catalysed DTT oxidation blockers – biochemical, H2O2 detection, luminescence, cherry-pick, dose response (AID 493248)
FAD-linked sulfhydryl oxidase ALR, sequence (P55789 whole entry): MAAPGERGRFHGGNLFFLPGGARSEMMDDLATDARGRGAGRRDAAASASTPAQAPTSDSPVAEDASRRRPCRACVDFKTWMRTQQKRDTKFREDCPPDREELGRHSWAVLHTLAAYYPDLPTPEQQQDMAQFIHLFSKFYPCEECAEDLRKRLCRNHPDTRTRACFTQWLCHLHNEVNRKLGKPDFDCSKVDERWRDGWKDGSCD

[16] = Luminescent dose response cell-based high throughput screening assay for inhibitors of the Janus kinase 2 mutant JAK2V617F. [Related pubchem assays: 1446 (Primary screen.), 1521 (Confirmation assay.), 1486 (Counter screen.)]; format: functional
Leucine aminopeptidase = biological target: T6, Leucine aminopeptidase (Plasmodium falciparum 3D7, UniProt Q8IL11); assay: P. falciparum M17LAP inhibitors, primary screen, biochemical, fluorogenic H-Leu-NHMec substrate, 1536-well (AID 1619); format: functional
T6 sequence (Q8IL11 whole entry): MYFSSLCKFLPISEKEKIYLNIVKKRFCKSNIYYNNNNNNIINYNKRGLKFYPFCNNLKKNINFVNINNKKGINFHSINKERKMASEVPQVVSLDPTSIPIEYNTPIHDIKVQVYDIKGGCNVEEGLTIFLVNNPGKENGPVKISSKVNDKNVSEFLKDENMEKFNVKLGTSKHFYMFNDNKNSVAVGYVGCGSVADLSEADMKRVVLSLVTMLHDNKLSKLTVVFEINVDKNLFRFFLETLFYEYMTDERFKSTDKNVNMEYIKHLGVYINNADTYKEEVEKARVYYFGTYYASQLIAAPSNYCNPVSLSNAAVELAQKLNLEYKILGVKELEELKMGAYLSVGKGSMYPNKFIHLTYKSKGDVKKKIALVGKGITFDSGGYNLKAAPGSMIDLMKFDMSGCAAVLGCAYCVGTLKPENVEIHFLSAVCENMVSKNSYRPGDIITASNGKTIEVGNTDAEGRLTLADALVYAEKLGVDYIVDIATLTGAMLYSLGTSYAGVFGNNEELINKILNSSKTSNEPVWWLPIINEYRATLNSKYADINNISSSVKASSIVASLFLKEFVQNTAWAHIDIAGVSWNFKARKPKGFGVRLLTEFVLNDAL

Large T antigen = Large T antigen (Simian virus 40, UniProt P03070); format: functional, Betapolyomavirus macacae;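 further: Confirmatory-stage PubChem screen for compounds that inhibit SV40 T antigen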
Cytochrome P450 3A4 = Cytochrome P450 3A4 (Homo sapiens, UniProt P08684);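 further: CYP3A4 tested as one member of a cytochrome P450 panel screen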
Danio rerio = assay: In Vivo Angiogenesis Dose-Response Confirmation. [Related pubchem assays: 732 (Assay preceding this confirmatory assay.)]; format: functional, organism-based
[17] = Luminescence Cell-Based Dose Response HTS to Identify Inhibitors of 5'UTR Stem-Loop Driven Prion Protein mRNA Translation in H4 Neuroglioblastoma Cells. [Related pubchem assays: 1827 (Project Summary), 1813 (Primary HTS)]; format: functional
[18] = luciferase reporter signal suppression in cells – H4 neuroglioma cells, luminescence, dose response (AID 1990); format: functional, cell-based

Cytochrome P450 2C19, sequence (P33261 whole entry): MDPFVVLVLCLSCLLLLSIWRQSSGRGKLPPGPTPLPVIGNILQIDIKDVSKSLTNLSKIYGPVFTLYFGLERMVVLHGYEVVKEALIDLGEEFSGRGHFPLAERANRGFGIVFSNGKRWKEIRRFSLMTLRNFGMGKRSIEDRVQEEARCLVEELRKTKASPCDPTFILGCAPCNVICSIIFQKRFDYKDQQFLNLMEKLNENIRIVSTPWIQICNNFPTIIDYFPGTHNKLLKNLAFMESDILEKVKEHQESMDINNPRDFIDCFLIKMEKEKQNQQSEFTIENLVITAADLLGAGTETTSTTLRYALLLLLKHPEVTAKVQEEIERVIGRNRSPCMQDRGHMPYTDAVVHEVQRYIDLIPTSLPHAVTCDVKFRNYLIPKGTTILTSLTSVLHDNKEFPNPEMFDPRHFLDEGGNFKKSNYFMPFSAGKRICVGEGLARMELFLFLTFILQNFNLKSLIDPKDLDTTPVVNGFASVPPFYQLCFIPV

In the case of `COc1cc2oc(-c3ccccc3)cc(=O)c2cc1OC`, the AC50 (Cytochrome P450 2C19) is reported as 31.6 µM (inconclusive).
In the case of `Cc1ccc(C(=O)Nc2nc3ccccc3s2)s1`, the IC50 [1] is reported as > 55.7 µM (not active).
In the case of `FC(F)(F)c1nnc2c(Sc3ccccn3)nc3ccccc3n12`, the AC50 (Paired box protein Pax-8) is reported as 7.08 µM (active), the AC50 [2] is reported as 55.5 µM (active) and the IC50 (Ephrin type-A receptor 4) is reported as > 100 µM (not active).
With `CN1CC=C2C(C#N)=C(N)C(C#N)(C#N)C(c3cccc(Cl)c3Cl)C2C1` (stereo unspecified) the EC50 [3] was 13.5 µM (active), the EC50 [4] was > 260 µM (inactive) and the IC50 (Bcl-2-related protein A1 [5]) was > 100 µM (not active). For the same molecule, the IC50 (Bcl-2-related protein A1 [6]) was > 100 µM (not active), the IC50 [7] was 12 µM (inactive) and the EC50 [8] was 14.4 µM (active).
For `Cc1ccc(S(=O)(=O)Nc2cnn(-c3ccccc3)c(=O)c2Cl)cc1`, the EC50 [9] was > 79.4 µM (inactive), the IC50 [10] was > 39.8 µM (not active) and the EC50 [11] was 19.2 µM (not active). The IC50 [12] was > 39.8 µM (not active) and the EC50 [13] was > 79.4 µM (not active).
For `CCCc1nc2ccccc2c(=O)n1/N=C/c1ccc(O)c(O)c1`, the IC50 (Heat shock protein HSP90) was 17.5816 µM, the IC50 [14] was 38.8 µM (active) and the AC50 [15] was 0.577 µM (active). The IC50 [16] was 2.18 µM (active), the IC50 (Leucine aminopeptidase) was 24.2 µM (active) and the IC50 (Large T antigen) was 10.5 µM (active).
With `NC(=O)c1cc(N2CC2)c([N+](=O)[O-])cc1[N+](=O)[O-]` [TRETAZICAR] the AC50 (Cytochrome P450 3A4) was 39.8 µM (inconclusive), the IC50 (Danio rerio) was 1.2 µM (not active) and the EC50 [17] was > 120 µM (not active). For the same molecule, the EC50 [18] was > 120 µM (not active).
